Measurements reported in patent US20090179638A1, “ASSAY FOR IDENTIFYING INHIBITORS OF NEURONAL APOPTOTIC PATHWAYS” (AEGERA THERAPEUTICS INC., priority 2006, published 2009).
Entries after “also recorded” stand apart in the source; their conditions may differ.

Columns and labels:
[1] = test system: JNK; test: Endogenous phosphorylation of GST-c-Jun in PC12rtTA cells; format: cell-based; conditions: for expression of the GST-c-Jun fusion construct: PC12rtTA cells
Protocol: FIGS. 7A, 7B and 7C are photographs of Western blots which illustrate that compound 1 analogues inhibit JNK activation and induce expression of HSP70. A: PC12^rtTA cells were transfected with RNAi directed against HSP70 or with control RNA and then 24 hours later were infected with 5 MOI of AdNRG or 50 MOI of the control virus AdLacZ. At time of infection, the cells were treated with 40 μM compound 2 or with a vehicle control, as indicated. After 30 hours, cells were lysed, normalized for protein levels, and analyzed for phosphorylated Jun, HSP70, HSP25 NRAGE and actin levels. B: PC12^rtTA cells were transfected with an expression construct driving GST-Jun. After 24 hours, cells were infected with 5 MOI of AdNRG or 50 MOI of the control virus AdLacZ or were left uninfected. After a further 24 hours, uninfected cells were left untreated or were exposed to 10 ng/ml TNF or 300 mM sorbitol for 15 minutes. Cells were then lysed, normalized for protein levels, and GST-jun was recovered by glutathione pullout and analyzed for phosphorylation using a antibody directed against c-Jun pSer63 by immunoblotting. Equivalent pullout of GST-Jun was confirmed by immunoblotting with an antibody directed against c-Jun and GST. C: PC12^rtTA cells were co-transfected with an expression construct driving GST-Jun and with RNAi directed against HSP70 or with control RNA, as indicated. After 24 hours, cells were infected with 5 MOI of AdNRG or 50 MOI of the control virus AdLacZ. At time of infection, the cells were treated with 40 μM compound 2 or with a vehicle control, as indicated. After 30 hours, cells were lysed, normalized for protein levels, and GST-jun was recovered by glutathione pullout and analyzed for phosphorylation using an antibody directed against c-Jun pSer63 by immunoblotting. Equivalent pullout of GST-Jun was confirmed by immunoblotting with an antibody directed against total Jun. Lysates levels of HSP70, HSP25, HSP40, NRAGE and actin was determined by immunoblot. […]
A causal link between HSP70 induction and JNK suppression, circumventing the problem of low-transfection efficiency of the PC12rtTA cells, was developed to assess JNK pathway activation specifically in the RNAi transfected subpopulation of PC12rtTA cells. […] We anticipated that the GST-c-Jun fusion protein would be readily recoverable from lysates and its phosphostatus would provide a sensitive read-out that reflects the level of JNK pathway activation in the subpopulation of cells which were transfected. […] GST-c-Jun was then recovered from lysates and its phosphostatus determined by immunoblotting. […] Thus, the phosphostatus of the GST-jun fusion protein provided a sensitive read-out that reflects the level of JNK pathway activation in transfected cells. […]

[2] = test system: PC12^rtTA cells; test: p75NTR- or NRAGE-induced cell death of PC12rtTA cells (LDH release assay); format: cell-based; conditions: for protection from Adp75- or AdNRG-induced cell death: increasing concentrations, LDH
Protocol: FIGS. 2A and 2B are graphs showing that compound 1 inhibits p75NTR or NRAGE induced JNK activation and cell death. Compound 1 inhibits NRAGE (A) or p75NTR (B) mediated cell death. PC12^rtTA cells were infected with recombinant adenoviruses expressing full-length NRAGE (AdNRG) at 5 MOI, full length p75NTR (Adp75) at 50 or 100 MOI, or the control protein β-galactosidase (AdLacZ) (at 5 MOI in (A) and 50 MOI in (B)). At time of infection, the cells were treated with an increasing concentration of compound 1, or with vehicle alone, as indicated. After 40 hours, cells were assayed for death using the lactate dehydrogenase (LDH) assay; untreated cells (Un) and cells treated with 1% Triton X-100 (Tx) were used to delineate the output range of the assay. Results are normalized relative to those obtained with 1% Triton (Tx), and represent the mean±standard deviation of a representative experiment performed in triplicate (*=P<0.005 relative to no compound 1).
PC12^rtTA were infected with adenoviruses encoding p75NTR (Adp75), NRAGE (AdNRG), or as a control, LacZ (AdLacZ), and were concurrently exposed to increasing concentrations of compound 1 for a period of 40 hours. Cell death was assessed using an LDH release assay. […] Treatment with 40 μM compound 1 reduced p75NTR- or NRAGE-induced cell death by greater than 90%.
Cell culture, infection, transfection and immunoblotting. Sympathetic neurons were maintained and deprived of NGF as previously described (Bamji et al., 1998; Ma et al., 1992). PC12^rtTA cells were maintained and infected as previously described (Majdan et al., 1997; Salehi et al., 2002); for NRAGE, […] doxycycline was added to all plates at time of infection. Wildtype and HSF1 nullizygous immortalized mouse embryonic fibroblasts (MEFs) were maintained in DMEM containing 10% fetal calf serum, 1 μM β-mercaptoethanol, 1% non-essential amino acids, 1% L-glutamine, 1% antimycotic solution and 1% sodium pyruvate (all from GibcoBRL). Sympathetic neuron survival was assessed using the MTS assay according to the manufacturer's instructions (Promega). Analysis of PC12 cell death was determined using a lactate dehydrogenase (LDH) assay (Roche) as per the manufacturer's instructions. Transfections using plasmids or RNAi were performed using Lipofectamine 2000. Immunoblotting was performed as previously described (Majdan et al., 1997; Salehi et al., 2002).

| SMILES | expression of the GST-c-Jun fusion construct [1] | reduction of p75NTR- or NRAGE-induced cell death ([2]; 40 μM, 40 hours, LDH release) | toxic effect in cells infected with the LacZ control ([2]; 80 μM) | inhibition of p75NTR- or NRAGE-induced apoptosis ([2]; 80 μM (highest concentration tested)) | protection from Adp75- or AdNRG-induced cell death ([2]; 40 hours) | ability to block GST-jun phosphorylation ([1]; 40 μM, RNAi directed against HSP70) | AdNRG-induced phosphorylation of GST-c-Jun ([1]; 40 μM, control siRNA) |
| --- | --- | --- | --- | --- | --- | --- | --- |
| NS(=O)(=O)c1nn2cc(-c3ccccc3)nc2s1 [Compound 1] | significantly increased | greater than 90% | slight toxic effect | effectively inhibited apoptosis | strongly attenuated; also recorded: protected |  |  |
| NS(=O)(=O)c1nn2cc(-c3ccc(N4CCOCC4)cc3)nc2s1 [Compound 2] | without altering |  |  |  | protected | almost completely lost | strongly inhibited |
